Test results reported in US20220340951A1, “MEASURING THE ANTIMICROBIAL SUSCEPTIBILITY OF MICROBES” (priority 2019, published 2022).
≈ marks a conversion by molar mass, not a printed value. Entries after “also recorded” stand apart in the source; their conditions may differ.

Key:
[1] = Antibiotic screening: CV, EIS and DPV of antibiotic solutions (without gels) on gold screen printed electrode; assay type: physicochemical; settings: antibiotic at typical working concentration, no gel; for Phase / Z at 100 kHz: EIS; for CDL / RSOLN: fitted EIS
Method: CV measurements were performed by sweeping the potential between −0.3 V to 0.5 V with reference to the Ag electrode three times. Analysis was performed using the third measurement. Electrodes were also characterised using differential pulse voltammetry (DPV) across the same potential range as CV. Peak current (Ipk) was extracted from the DPV measurement. Electrodes were also characterised using EIS. […] The Nyquist and Bode impedance plots that were generated were fitted to the Randles' equivalent circuit to extract various impedance parameters. […] A wide spectrum of antibiotics were tested including amoxicillin, oxacillin, methicillin, ampicillin, chloramphenicol, gentamicin, streptomycin and carbenicillin. […] Amoxicillin was then tested in an agarose gel with and without FF-C present (FIG. 2 (b)). […] The majority of the parameters are taken from fitted EIS data alongside Ipk from DPV measurements.

[2] = test system: Staphylococcus aureus (ATCC 29213); assay: Electrochemical (EIS) bacterial growth profile on antibiotic-infused gel-modified electrode; assay type: cell-based; settings: for Z at 100 kHz growth profile compared with baseline (no bacteria): antibiotic 8 μg/ml in gel, up to 150 minutes
[3] = test system: methicillin-resistant Staphylococcus aureus (MRSA: ATCC 43300); assay: Electrochemical (EIS/DPV) bacterial growth profile on antibiotic-infused gel-modified electrode; assay type: cell-based
[4] = test system: sensitive S. aureus; assay: Gel streak plate growth (1 wt % agarose + LB); assay type: cell-based, Staphylococcus aureus; settings: amoxicillin 8 μg/ml; with or without FF-C
[5] = test system: methicillin-resistant S. aureus (MRSA); assay: Gel streak plate growth (1 wt % agarose + LB Broth + FF-C); assay type: cell-based, Staphylococcus aureus; settings: amoxicillin 8 μg/ml
[6] = test system: MRSA; assay: Minimum inhibitory concentration by two-fold broth microdilution; assay type: cell-based; settings: Staphylococcus aureus; strain not stated explicitly; printed in the MRSA context
[7] = test system: E. coli (ATCC 25922); assay: Minimum inhibitory concentration of streptomycin as used in E. coli gels; assay type: cell-based; settings: Escherichia coli, ATCC25922

| Compound | DPV Ipk [1] [μA] | Phase [1] [°] | Z at 100 kHz [1] [kΩ] | CDL [1] [μF] | RSOLN [1] [kΩ] | baseline-subtracted Z at 100 kHz over time ([2]; amoxicillin-laden gel 8 μg/ml, between 30 and 100 minutes) | Z at 100 kHz growth profile compared with baseline (no bacteria) [2] | change in Z (baseline subtracted) ([3]; amoxicillin 8 μg/ml gel, over 30-100 minutes) | Z at 100 kHz growth profile compared with baseline (no bacteria) ([3]; amoxicillin 8 μg/ml in gel) | DPV peak current (Ipk) growth profile, baseline subtracted ([3]; amoxicillin 50 μg/ml gel) | change in Z (baseline subtracted) ([3]; amoxicillin 50 μg/ml gel, 30-100 minutes) | Z at 100 kHz growth profile compared with baseline (no bacteria) ([3]; amoxicillin 50 μg/ml in gel) | growth on streak plate [4] | growth on streak plate [5] | MIC [6] [mg/L] | baseline-subtracted Z at 100 kHz over time ([2]; oxacillin gel 8 μg/ml, up to ~70 minutes) | Z growth curves for gels with and without oxacillin ([3]; oxacillin 8 μg/ml gel) | MIC [7] [mg/L] |
| --- | --- | --- | --- | --- | --- | --- | --- | --- | --- | --- | --- | --- | --- | --- | --- | --- | --- | --- |
| CC1(C)S[C@@H]2[C@H](NC(=O)[C@H](N)c3ccc(O)cc3)C(=O)N2[C@H]1C(=O)O [amoxicillin] | 0.02 | 82.74 | 21.34 | 0.53 | 143.30 | unchanging | almost identical response to the baseline response | ~11 Ω | does not imitate the baseline | almost completely flat | virtually no change in Z | very similar profile to the baseline measurement | completely inhibited; also recorded: unable to grow | displays growth either in the presence or absence of amoxicillin | ~8 (≈ 21.9 µM) |  |  |  |
| CC1(C)S[C@@H]2[C@H](NC(=O)[C@H](N)c3ccccc3)C(=O)N2[C@H]1C(=O)O [ampicillin] | 0 | 67.63 | 10.88 | 0.38 | 40.93 |  |  |  |  |  |  |  |  |  |  |  |  |  |
| CC1(C)S[C@@H]2[C@H](NC(=O)C(C(=O)O)c3ccccc3)C(=O)N2[C@H]1C(=O)O (stereo partly drawn) [carbenicillin] | 0 | 46.56 | 7.54 | 0.44 | 11.83 |  |  |  |  |  |  |  |  |  |  |  |  |  |
| O=C(N[C@H](CO)[C@H](O)c1ccc([N+](=O)[O-])cc1)C(Cl)Cl [chloramphenicol] | 0.31 | 76.20 | 19.06 | 0.41 | 94.39 |  |  |  |  |  |  |  |  |  |  |  |  |  |
| COc1cccc(OC)c1C(=O)N[C@@H]1C(=O)N2[C@@H]1SC(C)(C)[C@@H]2C(=O)O [methicillin] | 0.06 | 61.43 | 15.92 | 0.53 | 67.30 |  |  |  |  |  |  |  |  |  |  |  |  |  |
| Cc1onc(-c2ccccc2)c1C(=O)N[C@@H]1C(=O)N2[C@@H]1SC(C)(C)[C@@H]2C(=O)O [oxacillin] | 0 | 111.17 | 22.79 | 0.28 | 49.81 |  | very similar Z profile to the baseline measurement |  |  |  |  |  |  |  |  | remains fairly flat | look very similar for gels with and without oxacillin |  |
| [H]/N=C(/N)N[C@H]1[C@H](O)[C@@H](O)[C@H](O[C@@H]2O[C@@H](C)[C@](O)(C=O)[C@H]2O[C@@H]2O[C@@H](CO)[C@H](O)[C@@H](O)[C@@H]2NC)[C@@H](N/C(N)=N\[H])[C@@H]1O [streptomycin] | 0 | 58.51 | 16.45 | 0.58 | 55.85 |  |  |  |  |  |  |  |  |  |  |  |  | ~4 (≈ 6.88 µM) |
| gentamicin | 0.01 | 31.68 | 6.05 | 0.77 | 7.97 |  |  |  |  |  |  |  |  |  |  |  |  |  |
